Tested on: T1, AcAAT4
T1 construct: pET32a-His fusion, expressed in E. coli BL21, Ni-NTA purified; tag cleavage not mentioned
Assay: GC-MS of SPME-collected (Z)-3-hexenyl acetate, varied (Z)-3-hexenol
Format: biochemical, Acacia confusa
Details: acetyl-CoA co-substrate; 50 mM Tris-HCl pH 7.4 in methods (text: optimal conditions pH 7.5-8); 30 °C

In the case of `CC/C=C\CCO` [(Z)-3-hexenol], the Km is reported as 54.6 µM.
